The source of these data is the supplement of paper PMC12317010.

This data set can be described thus: collision cross section in nitrogen (drift tube, single-field); higher = larger gas-phase ion size.
[1] abbreviates: ion type: [M-H], ion source: ESI, ion mode: Negative.
Setting [2] is: ion type: [M+Na], ion source: ESI, ion mode: Positive.
[3] abbreviates: ion type: [M+H], ion source: ESI, ion mode: Positive.
The mark [4] stands for this setting: ion type: [M+H], ion source: APCI, ion mode: Positive.
Setting [5] is: ion type: [M+], ion source: APCI, ion mode: Positive.

Counter-ions that a name gives are not always drawn.
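Further: chemical standards at 10 µM analysed by drift tube IMS-QTOF MS in about 3.95 torr nitrogen, mean of duplicate injections differing ≤1%, mass error below 10 ppm.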

In the case of `CC(C)(C)c1n[nH]c(=S)n(N)c1=O`, under setting [1], the “collision cross section in nitrogen” value is 142.1 Å².
Still for that read-out and setting: under `CN[C@H]1CC[C@@H](c2ccc(Cl)c(Cl)c2)c2ccc(S(N)(=O)=O)cc21` stands 197.2 Å².
The same measure, in the same setting: the value for `Cc1cc(Cl)ccc1OCC(=O)O` was 146.1 Å².
Regarding `CCCCCCCCCCCCCC(=O)OCC(O)CO` (racemic) [(+/-)-2,3-Dihydroxypropyl tetradecanoate], the “collision cross section in nitrogen” value under setting [2] stood at 183.7 Å².
For `COC(=O)N(C(=O)N1COC2(C(=O)OC)Cc3cc(Cl)ccc3C2=N1)c1ccc(OC(F)(F)F)cc1` (racemic) [(+/-)-Indoxacarb], the “collision cross section in nitrogen” value under setting [3] is reported as 205.6 Å² and the “collision cross section in nitrogen” value under setting [2] stood at 220.6 Å².
`O=C1CC(c2ccc(O)cc2)Oc2cc(O)cc(O)c21` (racemic) [(+/-)-Naringenin]: the “collision cross section in nitrogen” value under setting [1] is recorded as 163.9 Å².
On the same count and under the same terms, under `Oc1ccc(C2COc3cc(O)ccc3C2)cc1` (racemic) [(R,S)-Equol] stands 159.6 Å².
On to `CC(=O)Oc1c(C)c(C)c2c(c1C)CC[C@@](C)(CCC[C@H](C)CCC[C@H](C)CCCC(C)C)O2` (racemic) [dl-alpha-Tocopheryl acetate], for which the “collision cross section in nitrogen” value under setting [3] is listed as 226.4 Å² and the “collision cross section in nitrogen” value under setting [2] is listed as 222 Å².
On to `O=C1CCCCCN1SSN1CCCCCC1=O` [1,1'-Disulfanediyldiazepan-2-one], for which, under setting [2], the “collision cross section in nitrogen” value was determined as 168.7 Å².
On to `CC1=Nc2ccc3ccccc3c2C1(C)C` [1,1,2-Trimethyl-1H-benzo[e]indole], for which the “collision cross section in nitrogen” value is given as 145.8 Å² under setting [4] and 146.7 Å² under setting [3].
As to `CCCCN(CCCC)C(=O)N(CCCC)CCCC` [1,1,3,3-Tetrabutylurea], the “collision cross section in nitrogen” value by setting is: under setting [4], 177.3 Å²; under setting [3], 177.9 Å²; under setting [2], 194 Å².
Consider `Oc1ccc(C2(c3ccc(O)c(C4CCCCC4)c3)CCCCC2)cc1C1CCCCC1` [1,1-Bis(3-cyclohexyl-4-hydroxyphenyl)cyclohexane], for which the “collision cross section in nitrogen” value by setting is: under setting [2], 218.4 Å²; under setting [1], 217.2 Å².
With `C[N+]1(C)CCCCC1` [1,1-Dimethylpiperidinium chloride], the “collision cross section in nitrogen” value (ion source: ESI, ion mode: Positive, ion type: [M]+ (permanent cation)) stood at 121.2 Å².
Turning to `CC(O)CN(CCN(CC(C)O)CC(C)O)CC(C)O` (configuration not stated) [1,1′,1′′,1′′′-(Ethylenedinitrilo)tetrakis(2-propanol)], the “collision cross section in nitrogen” value worked out at 166.8 Å² under setting [4], 166.8 Å² under setting [3], 168.6 Å² under setting [2] and 168.6 Å² under setting [1].
`CN1C(C)(C)CC(O)CC1(C)C` [1,2,2,6,6-Pentamethylpiperidin-4-ol]: the “collision cross section in nitrogen” value is, setting by setting: under setting [4], 136 Å²; under setting [3], 136.9 Å².
For the compound `O=C1NC(=O)C2CC=CCC12` (configuration not stated) [1,2,3,6-Tetrahydrophthalimide], the “collision cross section in nitrogen” value under setting [1] was found to be 132.6 Å².
Take `O=c1nn[nH]c2ccccc12` [1,2,3-Benzotriazin-4(1H)-one]: the “collision cross section in nitrogen” value under setting [1] was determined as 126.4 Å².
Turning to `c1ccc2[nH]nnc2c1` [1,2,3-Benzotriazole], the “collision cross section in nitrogen” value is 120.7 Å² under setting [4], 122.2 Å² under setting [3] and 118.9 Å² under setting [1].
For the compound `Clc1cccc(Cl)c1Cl` [1,2,3-Trichlorobenzene], the “collision cross section in nitrogen” value under setting [2] was found to be 144.8 Å².
As to `O=C(O)c1ccc(C(=O)O)c(C(=O)O)c1` [1,2,4-Benzenetricarboxylic acid], the “collision cross section in nitrogen” value under setting [1] was determined as 136.9 Å².
Still for that read-out and setting: the value for `O=c1[nH]sc2ccccc12` [1,2-Benzisothiazolin-3-one] was 127.2 Å².
In the case of `CC1=C(C#N)C(=O)N(C)C(=O)C1` [1,2-Dihydro-6-hydroxy-1,4-dimethyl-2-oxonicotinonitrile], the “collision cross section in nitrogen” value reads like this: under setting [3], 133.8 Å²; under setting [2], 144.6 Å²; under setting [1], 131.2 Å².
For the compound `Cc1ncc([N+](=O)[O-])n1C` [1,2-Dimethyl-5-nitroimidazole], under setting [3], the “collision cross section in nitrogen” value is listed as 128 Å².
As for `Oc1cc(O)cc(O)c1` [1,3,5-Trihydroxybenzene dihydrate], the “collision cross section in nitrogen” value under setting [1] was 121.6 Å².
Same read-out and setting: the value for `O=C(O)c1cccc(C(=O)O)c1` [1,3-Benzenedicarboxylic acid] was 133.2 Å².
`O=C1CCCC(=O)C1` [1,3-Cyclohexanedione]: the “collision cross section in nitrogen” value stood at 122.6 Å² under setting [3] and 121.3 Å² under setting [1].
`CN1C(=CC=O)C(C)(C)c2ccccc21` [1,3-Dihydro-1,3,3-trimethyl-2H-indol-2-ylidene acetaldehyde]: the “collision cross section in nitrogen” value runs as follows: under setting [4], 144.6 Å²; under setting [3], 145.1 Å²; under setting [5], 143.2 Å².
Regarding `Cc1cc(C2(c3ccc(O)c(C)c3)C(=O)Nc3ccccc32)ccc1O` [1,3-Dihydro-3,3-bis(4-hydroxy-m-tolyl)-2H-indol-2-one], the “collision cross section in nitrogen” value under setting [3] is on record as 185.4 Å², the “collision cross section in nitrogen” value under setting [2] is 196.6 Å² and the “collision cross section in nitrogen” value under setting [1] is recorded as 190.8 Å².
In the case of `N=C1NC(=N)c2cc3ccccc3cc21` [1,3-Diiminobenz(f)isoindoline], under setting [3], the “collision cross section in nitrogen” value was 140.1 Å².
Consider `O=C(NCO)NCO` [1,3-Dimethylolurea], for which the “collision cross section in nitrogen” value under setting [2] is given as 151.7 Å².
As to `O=[N+]([O-])c1cc([N+](=O)[O-])c2ccccc2c1` [1,3-Dinitronaphthalene], the “collision cross section in nitrogen” value under setting [1] is on record as 138.9 Å².
In the case of `O=C(CC(=O)c1ccccc1)c1ccccc1` [1,3-Diphenyl-1,3-propanedione], the “collision cross section in nitrogen” value was found to be 165.9 Å² under setting [2] and 154.4 Å² under setting [1].
Consider `N=C(Nc1ccccc1)Nc1ccccc1` [1,3-Diphenylguanidine], for which the “collision cross section in nitrogen” value runs as follows: under setting [4], 150.7 Å²; under setting [3], 150.8 Å².
As for `Nc1ccc(Oc2cccc(Oc3ccc(N)cc3)c2)cc1` [1,3-Phenylenedi(4-aminophenyl ether)], the “collision cross section in nitrogen” value is, setting by setting: under setting [4], 167.2 Å²; under setting [3], 168.2 Å²; under setting [5], 177.7 Å².
For `Nc1ccc(C(=O)OCCCOC(=O)c2ccc(N)cc2)cc1` [1,3-Propanediyl bis(p-aminobenzoate)], the “collision cross section in nitrogen” value by setting is: under setting [2], 188.2 Å²; under setting [1], 166.6 Å².
As to `CC(C)Nc1ccc(NC(C)C)c2c1C(=O)c1ccccc1C2=O` [1,4-Bis(N-isopropylamino)anthraquinone], the “collision cross section in nitrogen” value is recorded as 179.1 Å² under setting [4], 179.4 Å² under setting [3] and 178.2 Å² under setting [5].
For `CCCCNc1ccc(NCCCC)c2c1C(=O)c1ccccc1C2=O` [1,4-Bis(butylamino)anthracene-9,10-dione], the “collision cross section in nitrogen” value is recorded as 192.4 Å² under setting [4], 192.8 Å² under setting [3], 207.7 Å² under setting [2] and 190.2 Å² under setting [5].
For `O=C(O)C1CCC(C(=O)O)CC1` (configuration not stated) [1,4-Cyclohexanedicarboxylic acid], the “collision cross section in nitrogen” value under setting [1] is 136.1 Å².
Take `Nc1ccc(N)c2c1C(=O)c1ccccc1C2=O` [1,4-Diaminoanthraquinone]: the “collision cross section in nitrogen” value runs as follows: under setting [4], 151.4 Å²; under setting [3], 151.5 Å²; under setting [5], 147.5 Å²; under setting [1], 149.1 Å².
For the compound `O=C1c2ccccc2C(=O)c2c(O)ccc(O)c21` [1,4-Dihydroxyanthracene-9,10-dione], the “collision cross section in nitrogen” value under setting [1] is reported as 148.9 Å².
In the case of `NCCCN1CCN(CCCN)CC1` [1,4-Piperazinedipropanamine], the “collision cross section in nitrogen” value by setting is: under setting [4], 150.3 Å²; under setting [3], 150.2 Å².
`Nc1ccc2c(S(=O)(=O)O)cccc2c1S(=O)(=O)O` [1,5-Naphthalenedisulfonic acid, 2-amino-, sodium salt (1:1)]: the “collision cross section in nitrogen” value under setting [1] is given as 159.4 Å².
Same read-out and setting: the value for `O=S(=O)(O)c1cccc2c(S(=O)(=O)O)cccc12` [1,5-Naphthalenedisulfonic acid, disodium salt hydrate] was 156.3 Å².
Consider `C=CC(=O)OCCCCCCOC(=O)C=C` [1,6-Hexanediol diacrylate], for which the “collision cross section in nitrogen” value under setting [2] came to 157.7 Å².
On the same count and under the same terms, under `C=C(C)C(=O)OCCCCCCOC(=O)C(=C)C` [1,6-Hexanediol dimethacrylate] stands 167.3 Å².
In the case of `Cn1c(=O)[nH]c2ncn(C)c2c1=O` [1,7-Dimethylxanthine], the “collision cross section in nitrogen” value reads like this: under setting [4], 134.2 Å²; under setting [1], 136.8 Å².
`C=C(C)C(=O)OCCCCCCCCCCOC(=O)C(=C)C` [1,10-Decanediol dimethacrylate]: the “collision cross section in nitrogen” value under setting [2] was determined as 184.9 Å².
Consider `c1cnc2c(c1)ccc1cccnc12` [1,10-Phenanthroline hydrochloride hydrate], for which the “collision cross section in nitrogen” value runs as follows: under setting [4], 131.8 Å²; under setting [3], 131.6 Å²; under setting [2], 145.7 Å².
For `c1cnc2c(c1)ccc1cccnc12` [1,10-Phenanthroline] the same measures were 131.3 Å², 132.4 Å² and 146 Å².
As to `Oc1ccccc1O` [1,2-Benzenediol], under setting [1], the “collision cross section in nitrogen” value worked out at 116.1 Å².
On to `CC(=O)c1sc(C)nc1C` [1-(2,4-Dimethyl-1,3-thiazol-5-yl)ethanone], for which the “collision cross section in nitrogen” value under setting [4] amounted to 129.2 Å².
On the same count and under the same terms, under `O=C1Cc2ccccc2N1c1c(Cl)cccc1Cl` [1-(2,6-Dichlorophenyl)-2-indolinone] stands 153.5 Å².
On to `CC(=O)c1ccc(O)cc1Br` [1-(2-Bromo-4-hydroxyphenyl)ethanone], for which the “collision cross section in nitrogen” value under setting [1] came to 130.1 Å².
Regarding `CCC(=O)C=Cc1ccc(OC)cc1` [1-(4-Methoxyphenyl)-1-pentene-3-one], under setting [4], the “collision cross section in nitrogen” value came to 143.3 Å².
